Laboratory results: ChEMBL document CHEMBL4385605, “Synthesis and Structure-Affinity Relationships of Spirocyclic Benzopyrans with Exocyclic Amino Moiety” (J Med Chem, 2019)
pKi: −log10 of the molar value. Activity calls are given as the source filed them. The rule behind the calls is not given here.

What was measured:
[1] = biological target: Sigma non-opioid intracellular receptor 1 (Cavia porcellus, UniProt Q60492); experiment: Displacement of [3H](+)-pentazocine from sigma 1 receptor in guinea pig brain cortex membranes after 120 mins by scintillation counting analysis; format: cell membranes
Sequence of Sigma non-opioid intracellular receptor 1 (Cavia porcellus, UniProt Q60492) (Q60492 whole entry): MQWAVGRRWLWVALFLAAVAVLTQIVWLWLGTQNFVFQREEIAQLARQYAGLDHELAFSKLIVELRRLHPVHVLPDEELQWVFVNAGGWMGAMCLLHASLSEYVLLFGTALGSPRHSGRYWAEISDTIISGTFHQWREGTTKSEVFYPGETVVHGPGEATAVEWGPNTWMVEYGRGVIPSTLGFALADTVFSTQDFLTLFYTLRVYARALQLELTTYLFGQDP

[2] = biological target: T1, Sigma intracellular receptor 2 (Rattus norvegicus, UniProt Q5U3Y7); experiment: Displacement of [3H]-di-o-tolylguanidine from sigma2 receptor in rat liver membranes incubated for 120 mins in the presence of sigma1 receptor ligand (+)-pentazocine by scintillation counting method; format: cell membranes
T1 sequence (Q5U3Y7 whole entry): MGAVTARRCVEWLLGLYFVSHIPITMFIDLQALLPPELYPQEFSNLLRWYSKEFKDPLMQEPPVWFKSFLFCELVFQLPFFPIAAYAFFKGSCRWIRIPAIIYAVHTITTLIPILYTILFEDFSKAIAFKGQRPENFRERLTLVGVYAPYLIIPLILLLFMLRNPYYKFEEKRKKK

[3] = Selectivity ratio of Ki for displacement of [3H]DTG from sigma2 receptor in rat liver membranes to Ki for displacement of (+)-[3H]pentazocine from sigma 1 receptor in guinea pig brain cortex membranes; format: cell membranes
[4] = biological target: Sigma non-opioid intracellular receptor 1 (Homo sapiens, UniProt Q99720); experiment: Displacement of [3H](+)-pentazocine from sigma 1 receptor in human RPMI8226 cell membranes incubated for 2 hrs under shaking by scintillation counting analysis
Sequence of Sigma non-opioid intracellular receptor 1 (Homo sapiens, UniProt Q99720) (Q99720 whole entry): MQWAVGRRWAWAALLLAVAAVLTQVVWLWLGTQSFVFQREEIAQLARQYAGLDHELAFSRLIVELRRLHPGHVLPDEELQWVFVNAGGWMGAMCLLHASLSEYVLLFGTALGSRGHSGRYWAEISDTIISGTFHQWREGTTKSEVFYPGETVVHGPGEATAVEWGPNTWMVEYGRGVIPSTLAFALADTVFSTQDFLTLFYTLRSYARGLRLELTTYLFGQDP

Mu-type opioid receptor [5] = biological target: Mu-type opioid receptor (Cavia porcellus, UniProt P97266); experiment: Displacement of [3H]DAMGO from mu opioid receptor in guinea pig brain membranes after 120 mins by scintillation counting analysis; format: cell membranes
Sequence of Mu-type opioid receptor (Cavia porcellus, UniProt P97266) (P97266 whole entry): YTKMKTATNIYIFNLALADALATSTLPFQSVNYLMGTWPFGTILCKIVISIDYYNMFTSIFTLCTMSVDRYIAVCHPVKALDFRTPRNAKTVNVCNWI

[6] = biological target: Delta-type opioid receptor (Rattus norvegicus, UniProt P33533); experiment: Displacement of [3H]DPDPE from delta opioid receptor in rat membranes after 120 mins by scintillation counting analysis; format: cell membranes
Sequence of Delta-type opioid receptor (P33533 whole entry): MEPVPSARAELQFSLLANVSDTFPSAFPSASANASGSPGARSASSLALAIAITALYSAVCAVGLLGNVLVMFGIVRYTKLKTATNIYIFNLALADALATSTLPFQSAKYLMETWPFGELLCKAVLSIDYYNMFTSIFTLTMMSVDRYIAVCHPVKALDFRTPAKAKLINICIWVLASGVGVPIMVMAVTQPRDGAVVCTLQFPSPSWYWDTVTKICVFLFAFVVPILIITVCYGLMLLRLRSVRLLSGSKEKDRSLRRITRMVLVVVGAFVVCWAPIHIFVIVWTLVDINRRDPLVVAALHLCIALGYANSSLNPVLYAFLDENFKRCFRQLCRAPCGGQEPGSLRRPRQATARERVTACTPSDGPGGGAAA

[7] = biological target: Kappa-type opioid receptor (Cavia porcellus, UniProt P41144); experiment: Displacement of [3H]U69,593 from kappa opioid receptor in guinea pig brain membrane after 120 mins by scintillation counting analysis; format: cell membranes
Sequence of Kappa-type opioid receptor (P41144 whole entry): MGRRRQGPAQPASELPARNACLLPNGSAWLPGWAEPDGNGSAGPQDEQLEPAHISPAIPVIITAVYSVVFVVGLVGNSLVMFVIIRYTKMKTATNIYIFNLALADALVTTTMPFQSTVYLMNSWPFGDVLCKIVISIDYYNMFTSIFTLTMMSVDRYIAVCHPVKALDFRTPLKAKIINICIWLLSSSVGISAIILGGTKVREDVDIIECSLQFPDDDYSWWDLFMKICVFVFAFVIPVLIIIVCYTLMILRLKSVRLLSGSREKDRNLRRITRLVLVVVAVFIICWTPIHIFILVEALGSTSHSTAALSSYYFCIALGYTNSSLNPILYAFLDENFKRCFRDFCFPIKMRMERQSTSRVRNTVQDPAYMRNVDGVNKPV

Sus scrofa = species on record: Sus scrofa; experiment: Displacement of [3H]-(+)-MK-801 from PCP binding site of NMDA receptor in pig brain cortex membranes up to 1 uM after 120 mins by scintillation counting analysis; format: cell membranes
Cytochrome P450 3A4 = Cytochrome P450 3A4 (Homo sapiens, UniProt P08684); experiment: Inhibition of recombinant human CYP3A4 at 1 uM by fluorescence assay; format: ADME; conditions: recombinant enzyme
Sequence of Cytochrome P450 3A4 (P08684 whole entry): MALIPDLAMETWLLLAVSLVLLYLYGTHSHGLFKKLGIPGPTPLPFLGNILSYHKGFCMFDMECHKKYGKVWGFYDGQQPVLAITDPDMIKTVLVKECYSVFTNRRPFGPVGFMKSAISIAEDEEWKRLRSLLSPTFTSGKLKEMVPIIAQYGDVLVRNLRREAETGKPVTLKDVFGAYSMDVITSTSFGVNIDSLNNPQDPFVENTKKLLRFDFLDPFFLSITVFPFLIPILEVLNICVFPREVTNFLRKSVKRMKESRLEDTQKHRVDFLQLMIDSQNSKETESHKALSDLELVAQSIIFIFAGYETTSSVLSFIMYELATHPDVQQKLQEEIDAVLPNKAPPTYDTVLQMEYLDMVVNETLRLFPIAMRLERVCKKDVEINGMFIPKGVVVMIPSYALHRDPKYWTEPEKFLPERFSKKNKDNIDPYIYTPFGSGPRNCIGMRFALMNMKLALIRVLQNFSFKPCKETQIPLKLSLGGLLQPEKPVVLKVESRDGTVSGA

CYP2D6 = CYP2D6 (Homo sapiens, UniProt P10635); experiment: Inhibition of recombinant human CYP2D6 at 1 uM by fluorescence assay relative to control; format: ADME
HepG2 [8] = experiment: Cytotoxicity against human HepG2 cells at 1 to 100 uM incubated for 20 hrs under serum free condition by MTT assay; format: cell-based; conditions: hepg2, 20 h
HepG2 [9] = experiment: Cytotoxicity against human HepG2 cells at 1 to 100 uM incubated for 20 hrs under serum free condition by neutral red uptake assay; format: cell-based; conditions: hepg2, 20 h
Cytochrome P450 1A2 = biological target: T2, Cytochrome P450 1A2 (Homo sapiens, UniProt P05177); experiment: Inhibition of recombinant human CYP1A2 at 1 uM by fluorescence assay; format: ADME; conditions: recombinant enzyme
T2 sequence (P05177 whole entry): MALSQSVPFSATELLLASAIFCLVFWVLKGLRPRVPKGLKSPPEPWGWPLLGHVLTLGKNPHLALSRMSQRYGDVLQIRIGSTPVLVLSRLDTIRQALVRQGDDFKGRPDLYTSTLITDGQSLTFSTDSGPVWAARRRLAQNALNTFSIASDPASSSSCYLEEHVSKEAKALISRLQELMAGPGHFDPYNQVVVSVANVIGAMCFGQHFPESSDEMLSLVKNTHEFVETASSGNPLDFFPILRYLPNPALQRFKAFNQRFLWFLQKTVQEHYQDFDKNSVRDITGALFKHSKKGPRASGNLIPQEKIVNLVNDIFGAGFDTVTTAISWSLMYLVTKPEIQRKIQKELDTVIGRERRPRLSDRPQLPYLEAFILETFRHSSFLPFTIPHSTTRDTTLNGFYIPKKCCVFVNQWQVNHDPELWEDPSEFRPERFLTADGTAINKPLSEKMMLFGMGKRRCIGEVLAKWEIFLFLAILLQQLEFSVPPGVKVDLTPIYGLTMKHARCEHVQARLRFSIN

Cytochrome P450 2C9 = Cytochrome P450 2C9 (Homo sapiens, UniProt P11712); experiment: Inhibition of recombinant human CYP2C9 at 1 uM by fluorescence assay; format: ADME; conditions: recombinant enzyme
Sequence of Cytochrome P450 2C9 (P11712 whole entry): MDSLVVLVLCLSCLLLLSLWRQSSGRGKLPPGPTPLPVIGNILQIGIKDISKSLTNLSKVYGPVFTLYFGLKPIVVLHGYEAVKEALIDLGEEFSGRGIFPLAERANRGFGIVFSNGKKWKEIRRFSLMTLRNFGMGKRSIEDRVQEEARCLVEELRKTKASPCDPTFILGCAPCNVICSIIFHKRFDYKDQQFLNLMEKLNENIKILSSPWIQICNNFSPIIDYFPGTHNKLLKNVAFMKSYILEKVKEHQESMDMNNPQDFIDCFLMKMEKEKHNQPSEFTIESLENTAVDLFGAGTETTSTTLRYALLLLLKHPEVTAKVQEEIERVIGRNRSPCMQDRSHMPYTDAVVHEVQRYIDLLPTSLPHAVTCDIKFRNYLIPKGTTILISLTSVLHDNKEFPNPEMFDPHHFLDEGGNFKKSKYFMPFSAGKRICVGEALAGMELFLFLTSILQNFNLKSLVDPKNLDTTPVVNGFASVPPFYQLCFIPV

Cytochrome P450 2C19 = Cytochrome P450 2C19 (Homo sapiens, UniProt P33261); experiment: Inhibition of recombinant human CYP2C19 at 1 uM by fluorescence assay; format: ADME; conditions: recombinant enzyme
Sequence of Cytochrome P450 2C19 (P33261 whole entry): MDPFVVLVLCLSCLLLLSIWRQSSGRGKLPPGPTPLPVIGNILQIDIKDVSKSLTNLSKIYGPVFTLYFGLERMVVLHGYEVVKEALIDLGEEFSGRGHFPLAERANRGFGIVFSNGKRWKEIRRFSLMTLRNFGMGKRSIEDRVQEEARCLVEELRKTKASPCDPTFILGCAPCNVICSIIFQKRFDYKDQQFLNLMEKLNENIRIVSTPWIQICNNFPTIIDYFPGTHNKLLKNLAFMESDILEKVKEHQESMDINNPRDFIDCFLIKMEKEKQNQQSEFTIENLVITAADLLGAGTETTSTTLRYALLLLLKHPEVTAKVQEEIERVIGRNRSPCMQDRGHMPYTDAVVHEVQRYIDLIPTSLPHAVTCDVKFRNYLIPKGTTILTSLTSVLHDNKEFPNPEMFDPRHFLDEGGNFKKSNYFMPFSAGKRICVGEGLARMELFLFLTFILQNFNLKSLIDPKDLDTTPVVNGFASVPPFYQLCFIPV

[10] = Metabolic stability in human liver microsomes assessed as parent compound remaining at 1 uM in the presence of NADPH regenerating system after 60 mins by UPLC/MS analysis; format: ADME, Microsome; conditions: read-out: Stability
[11] = biological target: Sodium-dependent noradrenaline transporter (Homo sapiens) (UniProt P23975); experiment: Binding affinity to noradrenaline transporter (unknown origin) at 1 uM
Sequence of Sodium-dependent noradrenaline transporter (Homo sapiens) (P23975 whole entry): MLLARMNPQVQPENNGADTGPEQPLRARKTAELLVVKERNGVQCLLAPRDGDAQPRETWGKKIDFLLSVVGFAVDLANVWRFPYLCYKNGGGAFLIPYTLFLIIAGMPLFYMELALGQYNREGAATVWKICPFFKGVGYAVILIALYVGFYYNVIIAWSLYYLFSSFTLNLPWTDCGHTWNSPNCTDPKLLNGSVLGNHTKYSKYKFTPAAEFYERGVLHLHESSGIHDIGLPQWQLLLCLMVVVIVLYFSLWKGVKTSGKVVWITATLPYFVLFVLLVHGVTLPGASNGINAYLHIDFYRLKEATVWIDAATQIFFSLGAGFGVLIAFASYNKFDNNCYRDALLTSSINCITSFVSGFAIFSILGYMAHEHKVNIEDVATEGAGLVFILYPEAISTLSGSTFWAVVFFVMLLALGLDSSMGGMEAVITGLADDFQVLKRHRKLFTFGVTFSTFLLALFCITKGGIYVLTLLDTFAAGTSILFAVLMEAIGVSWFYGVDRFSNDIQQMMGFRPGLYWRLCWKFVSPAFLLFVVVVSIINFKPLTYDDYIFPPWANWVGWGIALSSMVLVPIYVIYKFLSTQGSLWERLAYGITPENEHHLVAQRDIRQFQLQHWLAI

[12] = biological target: Sodium-dependent dopamine transporter (Homo sapiens) (UniProt Q01959); experiment: Binding affinity to dopamine transporter (unknown origin) at 1 uM
Sequence of Sodium-dependent dopamine transporter (Homo sapiens) (Q01959 whole entry): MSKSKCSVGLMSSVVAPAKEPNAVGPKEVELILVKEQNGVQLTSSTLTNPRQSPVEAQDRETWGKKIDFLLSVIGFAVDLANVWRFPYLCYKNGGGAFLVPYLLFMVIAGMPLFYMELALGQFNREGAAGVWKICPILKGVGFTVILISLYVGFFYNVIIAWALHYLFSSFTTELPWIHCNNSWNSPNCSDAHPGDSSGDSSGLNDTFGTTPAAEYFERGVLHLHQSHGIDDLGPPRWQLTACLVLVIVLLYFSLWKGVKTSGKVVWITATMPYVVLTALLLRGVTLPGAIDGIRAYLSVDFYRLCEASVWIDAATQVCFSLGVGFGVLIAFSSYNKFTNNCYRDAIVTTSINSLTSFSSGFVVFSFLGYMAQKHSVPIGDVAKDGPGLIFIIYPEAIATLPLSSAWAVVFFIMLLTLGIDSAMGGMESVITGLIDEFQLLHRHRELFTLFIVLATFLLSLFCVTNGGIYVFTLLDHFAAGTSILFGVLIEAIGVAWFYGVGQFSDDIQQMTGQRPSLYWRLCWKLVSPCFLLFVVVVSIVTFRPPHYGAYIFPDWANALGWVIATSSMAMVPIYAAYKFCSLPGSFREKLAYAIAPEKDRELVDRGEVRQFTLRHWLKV

[13] = biological target: T3, Alpha-1A adrenergic receptor (Homo sapiens) (UniProt P35348); experiment: Binding affinity to alpha 1a adrenergic receptor (unknown origin) at 1 uM relative to control
T3 sequence (whole entry): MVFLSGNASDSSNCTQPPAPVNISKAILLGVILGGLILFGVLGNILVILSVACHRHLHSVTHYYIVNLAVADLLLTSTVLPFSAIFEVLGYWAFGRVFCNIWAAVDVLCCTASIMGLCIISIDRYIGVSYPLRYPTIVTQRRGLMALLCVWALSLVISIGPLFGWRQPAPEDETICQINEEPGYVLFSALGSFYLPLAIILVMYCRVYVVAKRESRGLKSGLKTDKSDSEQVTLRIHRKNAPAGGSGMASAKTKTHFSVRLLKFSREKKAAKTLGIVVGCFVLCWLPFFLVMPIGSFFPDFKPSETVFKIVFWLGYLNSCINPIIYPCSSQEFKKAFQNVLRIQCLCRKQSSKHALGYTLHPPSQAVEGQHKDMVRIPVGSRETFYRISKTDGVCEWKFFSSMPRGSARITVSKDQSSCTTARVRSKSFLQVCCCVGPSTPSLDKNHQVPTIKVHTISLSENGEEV

[14] = biological target: T4, Alpha-2A adrenergic receptor (Homo sapiens) (UniProt P08913); experiment: Binding affinity to alpha 2a adrenergic receptor (unknown origin) at 1 uM relative to control
T4 sequence (whole entry): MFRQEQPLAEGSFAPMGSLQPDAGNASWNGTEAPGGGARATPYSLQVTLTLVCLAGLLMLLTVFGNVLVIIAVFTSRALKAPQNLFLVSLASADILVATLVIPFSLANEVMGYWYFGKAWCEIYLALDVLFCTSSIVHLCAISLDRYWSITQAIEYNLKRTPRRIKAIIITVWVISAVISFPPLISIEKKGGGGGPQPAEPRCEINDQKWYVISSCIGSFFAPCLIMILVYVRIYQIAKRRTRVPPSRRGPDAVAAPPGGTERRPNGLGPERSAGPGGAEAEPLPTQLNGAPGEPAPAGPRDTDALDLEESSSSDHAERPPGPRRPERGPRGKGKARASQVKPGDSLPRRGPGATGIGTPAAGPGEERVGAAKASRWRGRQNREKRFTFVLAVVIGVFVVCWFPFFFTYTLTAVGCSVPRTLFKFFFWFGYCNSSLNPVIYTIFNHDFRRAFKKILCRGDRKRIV

[15] = biological target: T5, 5-hydroxytryptamine receptor 1A (Homo sapiens) (UniProt P08908); experiment: Binding affinity to 5-HT1AR (unknown origin) at 1 uM relative to control
T5 sequence (whole entry): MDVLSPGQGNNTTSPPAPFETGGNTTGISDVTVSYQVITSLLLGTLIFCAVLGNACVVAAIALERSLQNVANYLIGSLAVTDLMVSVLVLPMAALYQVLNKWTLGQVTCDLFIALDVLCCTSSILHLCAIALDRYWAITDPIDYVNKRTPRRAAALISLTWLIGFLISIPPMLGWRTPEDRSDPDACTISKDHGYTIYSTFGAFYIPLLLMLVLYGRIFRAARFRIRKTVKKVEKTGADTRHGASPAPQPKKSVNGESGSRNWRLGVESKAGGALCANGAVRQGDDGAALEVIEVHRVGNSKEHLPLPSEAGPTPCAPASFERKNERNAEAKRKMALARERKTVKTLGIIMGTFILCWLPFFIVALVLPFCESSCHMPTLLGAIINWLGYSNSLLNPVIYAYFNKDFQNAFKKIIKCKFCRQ

[16] = biological target: 5-hydroxytryptamine receptor 2B (Homo sapiens) (UniProt P41595); experiment: Binding affinity to 5-HT2BR (unknown origin) at 1 uM relative to control
[17] = biological target: Sodium-dependent serotonin transporter (Homo sapiens) (UniProt P31645); experiment: Binding affinity to serotonin transporter (unknown origin) at 1 uM
Sequence of Sodium-dependent serotonin transporter (Homo sapiens) (P31645 whole entry, looked up): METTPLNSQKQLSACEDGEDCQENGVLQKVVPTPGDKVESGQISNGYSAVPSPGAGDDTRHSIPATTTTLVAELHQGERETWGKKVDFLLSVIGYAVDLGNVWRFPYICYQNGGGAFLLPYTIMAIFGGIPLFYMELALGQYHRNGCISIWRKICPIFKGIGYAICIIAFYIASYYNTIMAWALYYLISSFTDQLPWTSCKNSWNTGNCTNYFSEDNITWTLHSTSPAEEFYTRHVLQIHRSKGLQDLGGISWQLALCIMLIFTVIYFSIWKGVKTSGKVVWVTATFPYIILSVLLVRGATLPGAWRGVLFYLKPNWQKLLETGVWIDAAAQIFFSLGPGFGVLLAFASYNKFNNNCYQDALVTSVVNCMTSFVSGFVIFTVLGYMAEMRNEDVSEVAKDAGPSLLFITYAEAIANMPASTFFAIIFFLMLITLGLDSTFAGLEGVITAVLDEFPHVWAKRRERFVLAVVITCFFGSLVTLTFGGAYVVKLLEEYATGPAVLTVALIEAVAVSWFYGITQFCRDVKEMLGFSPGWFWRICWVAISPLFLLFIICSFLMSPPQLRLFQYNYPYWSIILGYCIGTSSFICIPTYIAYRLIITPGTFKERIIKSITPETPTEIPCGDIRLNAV

[18] = biological target: Sigma intracellular receptor 2 (Homo sapiens, UniProt Q5BJF2); experiment: Displacement of [3H]-di-o-tolylguanidine from sigma2 receptor in human RT4 cell membranes at 1 uM after 120 mins in the presence of sigma1 receptor ligand (+)-pentazocine by scintillation counting method relative to control
Sequence of Sigma intracellular receptor 2 (Homo sapiens, UniProt Q5BJF2) (Q5BJF2 whole entry): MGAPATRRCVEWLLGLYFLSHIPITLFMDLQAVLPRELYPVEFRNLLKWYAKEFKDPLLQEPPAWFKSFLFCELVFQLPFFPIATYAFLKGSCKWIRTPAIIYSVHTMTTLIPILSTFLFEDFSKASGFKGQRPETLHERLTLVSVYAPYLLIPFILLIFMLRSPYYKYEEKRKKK

Cavia porcellus = species on record: Cavia porcellus; experiment: Selectivity ratio of Ki for displacement of [3H](+)-pentazocine from sigma 1 receptor in guinea pig brain cortex membranes to Ki for displacement of [3H]DAMGO from mu opioid receptor in guinea pig brain membranes; format: cell membranes
[19] = biological target: Sigma intracellular receptor 2 (Rattus norvegicus) (UniProt Q5U3Y7); experiment: Displacement of [3H]-di-o-tolylguanidine from sigma2 receptor in rat liver membranes at 1 uM incubated for 120 mins in the presence of sigma1 receptor ligand (+)-pentazocine by scintillation counting method relative to control; format: cell membranes
[20] = biological target: Delta-type opioid receptor (Rattus norvegicus) (UniProt P33533); experiment: Displacement of [3H]DPDPE from delta opioid receptor in rat membrane at 1 uM after 120 mins by scintillation counting analysis relative to control; format: cell membranes
Mu-type opioid receptor [21] = biological target: Mu-type opioid receptor (Homo sapiens, UniProt P35372); experiment: Binding affinity to human mu opioid receptor by cell based assay
[22] = biological target: Mu-type opioid receptor (Cavia porcellus) (UniProt P97266); experiment: Displacement of [3H]DAMGO from mu opioid receptor in guinea pig brain membranes at 1 uM after 120 mins by scintillation counting analysis relative to control; format: cell membranes
Sequence of Mu-type opioid receptor (Cavia porcellus) (P97266 whole entry): as the sequence (P97266 whole entry) above

Row | SMILES | pKi [1] | pKi [2] | Ratio Ki [3] | pKi [4] | pKi (Mu-type opioid receptor [5]) | pKi [6] | pKi [7] | Activity (Sus scrofa) | inhibition (INH) (Cytochrome P450 3A4) | inhibition at 1 µM (CYP2D6) [%] | inhibition (INH) (Cytochrome P450 1A2) | inhibition (INH) (Cytochrome P450 2C9) | inhibition (INH) (Cytochrome P450 2C19) | remaining at 1 h, 1 µM [10] [%] | Activity [11] | Activity [12] | Activity [13] | Activity [14] | Activity (HepG2 [8]) | Activity (HepG2 [9]) | further results
1 | COC1Cc2ccccc2[C@]2(CC[C@@H](N(C)CC3CCCCC3)CC2)O1 (some centres undefined) | 8.51 | 6.81 | 50 | 8.16 | 6.52 | 6.82 | 6.01 | inactive | Not Active | > 90 | Not Active | Not Active | Not Active | > 50 | inactive | inactive | inactive | inactive | Non-Toxic | Non-Toxic | Activity [15]: inactive; Activity [16]: inactive; Activity [17]: inactive
2 | COC1O[C@]2(CC[C@H](NCc3ccccc3)CC2)c2ccccc21 (some centres undefined) | 6.58 | – | 5 to 10 | – | 6.94 | – | 6.38 | – | – | – | – | – | – | – | – | – | – | – | – | – | inhibition [19]: 25%; inhibition [20]: 30%
3 | COC1Cc2ccccc2[C@]2(CC[C@@H](N(C)Cc3ccccc3)CC2)O1 (some centres undefined) | – | 5.84 | 5 to 10 | 7.40 | 7.39 | 6.43 | 6.60 | inactive | Not Active | > 90 | Not Active | Not Active | Not Active | > 50 | inactive | inactive | inactive | inactive | Non-Toxic | Non-Toxic | pKi (Mu-type opioid receptor [21]): 7.74; Activity [15]: inactive; Activity [16]: inactive; Activity [17]: inactive
4 | COC1Cc2ccccc2[C@]2(CC[C@H](N(C)Cc3ccccc3)CC2)O1 (some centres undefined) | – | 6.48 | 5 to 10 | 7.41 | – | 5.89 | 5.64 | inactive | Not Active | > 90 | Not Active | Not Active | Not Active | > 50 | inactive | inactive | inactive | inactive | Non-Toxic | Non-Toxic | inhibition [22]: 12%; Activity [15]: inactive; Activity [16]: inactive; Activity [17]: inactive

Now those with a higher pKi [7], led by results:

Row | pKi [1] | pKi [2] | Ratio Ki [3] | pKi [4] | pKi (Mu-type opioid receptor [5]) | pKi [6] | pKi [7] | Activity (Sus scrofa) | inhibition (INH) (Cytochrome P450 3A4) | inhibition at 1 µM (CYP2D6) [%] | inhibition (INH) (Cytochrome P450 1A2) | inhibition (INH) (Cytochrome P450 2C9) | inhibition (INH) (Cytochrome P450 2C19) | remaining at 1 h, 1 µM [10] [%] | Activity [11] | Activity [12] | Activity [13] | Activity [14] | SMILES | Activity (HepG2 [8]) | Activity (HepG2 [9]) | further results
5 | – | 5.70 | 5 to 10 | – | 7.42 | 7.31 | 6.69 | inactive | – | – | – | – | – | – | – | – | – | – | COC1Cc2ccccc2[C@]2(CC[C@@H](NCc3ccccc3)CC2)O1 (some centres undefined) | – | – | inhibition [18]: 40%; Ratio Ki (Cavia porcellus): 14
6 | 6.59 | – | 5 to 10 | – | 7.51 | 7.85 | 7.07 | – | – | – | – | – | – | – | – | – | – | – | c1ccc(CN[C@H]2CC[C@@]3(CC2)OCCc2ccccc23)cc1 | – | – | inhibition [19]: 13%; Ratio Ki (Cavia porcellus): 8.5
